Laboratory results as given in patent US20100254965A1, “Adenosine Signaling in Diagnosis, Treatment, and Prevention of Priapism and Erectile Dysfunction” (BOARD OF REGENTS ,THE UNIVERSITY OF TEXAS SYSTEM, priority 2006, published 2010).
Entries after “also recorded” stand apart in the source; their conditions may differ.

How the values were obtained:
[1] = system: corpus cavernosal strips (CCS); assay: cGMP production in CCS (penile organ culture) in response to adenosine; format: cell-based, mouse
Procedure: (§1) FIG. 18. Adenosine stimulated both cAMP and cGMP induction in corpus cavernosal smooth muscle cells (CCSM) via A2BR activation. (a) Adenosine receptor expression profile in purified primary CCSM. CCSM were purified from adult mouse penes. […] (b) CCSM were isolated and cultured from mouse penes. The cells were switched to serum-free medium and treated with different concentrations of adenosine with or without A2BR antagonist (MRS1706-10 μM), A2AR antagonist (ZM241385-50 nM) or A2AR agonist (CGS-21680-10 μM) alone for 10 min. Then cellular extracts were collected and cAMP levels were measured using an ELISA kit. […] After 10 min treatment, the cellular extracts were collected and cAMP levels were measured by using a commercial enzyme immunoassay kit (Amersham Pharmacia). […] 10 min after treatment, cellular extracts were collected and cGMP levels were measured by using a commercial enzyme immunoassay kit (Amersham Pharmacia). Data are expressed as mean±SE. *p<0.05, adenosine treated versus the control; **p<0.05, adenosine treated with MRS1706 versus the adenosine treated; ***p<0.05, CCS of A2BR-deficient mice treated with adenosine versus the CCS of wild type mice treated with adenosine. […] After 10 min treatment, the cellular extracts were collected and cAMP levels were measured by using a commercial enzyme immunoassay kit (Amersham Pharmacia). […]

[2] = system: multiple animal models, including humans; conditions: intracavernous injection, multiple animal models, including humans; cited from earlier work
[3] = system: CCS and CCSM; assay: Phenylephrine-induced myosin light chain (MLC) phosphorylation, western blot; format: cell-based, mouse; conditions: intact penile organ culture and CCSM, PE 10 μM, adenosine 100 μM
Procedure: as §1

Question: For `Nc1ncnc2c1ncn2[C@@H]1O[C@H](CO)[C@@H](O)[C@H]1O` [adenosine], which cGMP production ([1]; CCS of A2BR-deficient mice) is on record?
Answer: The cGMP production was “absent”.

Question: And the cGMP production ([1]; wild type penile organ culture (CCS))?
Answer: Its cGMP production is “can increase cGMP production; also recorded: induced by adenosine in a dosage-dependent manner”.

Question: And the “tumescence and penile erection” value [2]?
Answer: Its value is “resulted in tumescence and penile erection”.

Question: And the “PE-mediated MLC phosphorylation” value [3]?
Answer: Its value is “decreased PE-mediated MLC phosphorylation”.
